From ChEMBL document CHEMBL1123903, “Synthesis and antimalarial effects of 4-[(7-chloro-4-quinolinyl)amino]-2-[(diethylamino)methyl] -6-alkylphenols and their N omega-oxides” (1987)

Assays:
Assay type in all cases: functional
Mus musculus [1] = assay: Number of mice surviving at 60 days postinfection when administered as a single dose of 320 mg/kg (sc) 72-h post infection
Plasmodium berghei [2] = assay: Change in mean survival time of trophozoite-induced Plasmodium berghei infection after 40 mg/kg subcutaneous dose
Mus musculus [3] = assay: Number of mice surviving at 60 days postinfection when administered as a single dose of 80 mg/kg (sc) 72-h post infection
Plasmodium berghei [4] = assay: Change in mean survival time of trophozoite-induced Plasmodium berghei infection after 20 mg/kg subcutaneous dose
Mus musculus [5] = assay: Number of mice surviving at 60 days postinfection when administered as a single dose of 160 mg/kg (sc) 72-h post infection
Mus musculus [6] = assay: Number of mice surviving at 60 days postinfection when administered as a single dose of 640 mg/kg (sc) 72-h post infection
Mus musculus [7] = assay: Antimalarial activity tested against trophozoite induced Plasmodium berghei in mice (Mus musculus) expressed as change in mean survival time after a single dose of 640 mg/kg (subcutaneously); settings: route subcutaneous
Plasmodium berghei [8] = assay: Change in mean survival time of trophozoite-induced Plasmodium berghei infection after 160 mg/kg subcutaneous dose
Plasmodium berghei [9] = assay: Change in mean survival time of trophozoite-induced Plasmodium berghei infection after 80 mg/kg subcutaneous dose
Mus musculus [10] = assay: Antimalarial activity tested against trophozoite induced Plasmodium berghei in mice (Mus musculus) expressed as change in mean survival time after a single dose of 320 mg/kg (subcutaneously); settings: route subcutaneous
Mus musculus [11] = assay: Number of mice surviving at 60 days postinfection when administered as a single dose of 320 mg/kg (sc) 72-h post infection (delta MST)
Mus musculus [12] = assay: Number of mice surviving at 60 days postinfection when administered as a single dose of 160 mg/kg (sc) 72-h post infection (delta MST)
Mus musculus [13] = assay: Antimalarial activity tested against trophozoite induced Plasmodium berghei in mice (Mus musculus) expressed as change in mean survival time after a single dose of 10 mg/kg (subcutaneously); settings: route subcutaneous
Mus musculus [14] = assay: Number of mice surviving at 60 days postinfection when administered as a single dose of 40 mg/kg (sc) 72-h post infection (delta MST)
Mus musculus [15] = assay: Number of mice surviving at 60 days postinfection when administered as a single dose of 80 mg/kg (sc) 72-h post infection (delta MST)
Mus musculus [16] = assay: Number of mice surviving at 60 days postinfection when administered as a single dose of 640 mg/kg (sc) 72-h post infection (delta MST)
[17] = Antimalarial activity tested against trophozoite induced Plasmodium berghei in mice (Mus musculus) expressed as change in mean survival time after a single dose of 40 mg/kg (subcutaneously); settings: route subcutaneous
Mus musculus [18] = assay: Number of deaths when administered as a single dose of 640 mg/kg (sc) 72-h postinfection in mice
Mus musculus [19] = assay: Number of deaths when administered as a single dose of 320 mg/kg (sc) 72-h postinfection in mice
Mus musculus [20] = assay: Number of mice surviving at 60 days postinfection when administered as a single dose of 20 mg/kg (sc) 72-h post infection (delta MST)

SMILES	Cures (Mus musculus [1])	Delta MST (Plasmodium berghei [2])	Cures (Mus musculus [3])	Delta MST (Plasmodium berghei [4])	Cures (Mus musculus [5])	Cures (Mus musculus [6])	Delta MST (Mus musculus [7])	Delta MST (Plasmodium berghei [8])	Delta MST (Plasmodium berghei [9])	Delta MST (Mus musculus [10])	Cures (Mus musculus [11])	Cures (Mus musculus [12])	Delta MST (Mus musculus [13])	Cures (Mus musculus [14])	Cures (Mus musculus [15])	Cures (Mus musculus [16])	Delta MST [17]	Deaths (Mus musculus [18])	Deaths (Mus musculus [19])	Cures (Mus musculus [20])
CCN(CC)Cc1cc(Nc2ccnc3cc(Cl)ccc23)ccc1O.Cl	5	11.9 days	2	8.3 days	5	5	–	–	–	–	–	–	–	–	–	–	–	–	–	–
CCN(CC)Cc1cc(Nc2cc[n+]([O-])c3cc(Cl)ccc23)cc(Sc2ccc(Cl)cc2)c1O	–	4.1 days	–	0.5 days	–	–	14.4 days	7.6 days	3.4 days	9 days	–	–	–	–	–	–	–	–	–	–
CCN(CC)Cc1cc(Nc2cc[n+]([O-])c3cc(Cl)ccc23)cc(C2CCCCC2)c1O	–	3.9 days	–	0.5 days	–	5	–	22.4 days	8.5 days	24.9 days	4	3	–	–	–	–	–	–	–	–
CCN(CC)Cc1cc(Nc2ccnc3cc(Cl)ccc23)cc(C(C)(C)C)c1O	–	0.5 days	–	0.1 days	–	–	6.3 days	1.9 days	1.7 days	5.9 days	–	–	–	–	–	–	–	–	–	–
CCN(CC)Cc1cc(Nc2cc[n+]([O-])c3cc(Cl)ccc23)cc(C(C)(C)C)c1O	–	1.7 days	–	0.1 days	–	–	6.1 days	4.1 days	2.9 days	6.7 days	–	–	3.7 days	–	–	–	–	–	–	–
CCc1cc(Nc2cc[n+]([O-])c3cc(Cl)ccc23)cc(CN(CC)CC)c1O	–	13.2 days	–	5.5 days	–	4	1.4 days	13.4 days	10.9 days	13.4 days	3	2	3.7 days	1	3	–	–	–	–	–
CCN(CC)Cc1cc(Nc2ccnc3cc(Cl)ccc23)c2c(c1O)CCCC2	–	12.8 days	–	12.6 days	–	3	–	15.1 days	14.8 days	28.3 days	3	2	6.8 days	2	2	–	–	–	–	–
CCN(CC)Cc1cc(Nc2ccnc3cc(Cl)ccc23)cc(C(C)C)c1O	5	27.9 days	–	18.1 days	5	5	–	–	25.4 days	–	–	–	11.1 days	3	4	–	–	–	–	–
CCN(CC)Cc1cc(Nc2ccnc3cc(Cl)ccc23)cc(Cc2ccccc2)c1O	–	1.7 days	–	0.2 days	–	–	7.9 days	3.7 days	3.4 days	7.8 days	–	–	–	–	–	–	–	–	–	–
CCc1cc(Nc2ccnc3cc(Cl)ccc23)cc(CN(CC)CC)c1O	–	–	–	12.1 days	–	–	27.4 days	14.4 days	20.7 days	34.4 days	4	4	6.1 days	1	2	4	12.4 days	–	–	–
CCN(CC)Cc1cc(Nc2cc[n+]([O-])c3cc(Cl)ccc23)cc(C)c1O	–	14.3 days	–	7.6 days	–	5	–	13 days	11.5 days	19 days	3	3	1.4 days	2	1	–	–	–	–	–
CCN(CC)Cc1cc(Nc2ccnc3cc(Cl)ccc23)cc(C)c1O	–	13 days	–	10.4 days	–	5	–	20.7 days	13.7 days	17.2 days	3	4	7 days	1	4	–	–	–	–	–
CCN(CC)Cc1cc(Nc2ccnc3cc(Cl)ccc23)cc(Sc2ccc(Cl)cc2)c1O	–	7.3 days	–	3 days	–	–	13.1 days	10.1 days	8.8 days	–	–	–	–	–	–	–	–	–	–	–
CCN(CC)Cc1cc(Nc2ccnc3cc(Cl)ccc23)cc(C2CCCCC2)c1O	5	5.7 days	–	0.5 days	5	5	–	–	10.6 days	–	–	–	–	–	2	–	–	–	–	–
CCN(CC)Cc1cc(Nc2cc[n+]([O-])c3cc(Cl)ccc23)cc(C(C)C)c1O	–	15.5 days	–	11.8 days	–	–	23.7 days	21.7 days	15.5 days	29.7 days	1	1	3 days	1	1	4	–	–	–	–
CCC(C)c1cc(Nc2ccnc3cc(Cl)ccc23)cc(CN(CC)CC)c1O (stereo not given)	5	27.7 days	–	18 days	–	5	–	40.2 days	29.4 days	–	–	1	9.8 days	2	2	–	–	–	–	–
CCN(CC)Cc1cc(Nc2cc[n+]([O-])c3cc(Cl)ccc23)cc(Cc2ccccc2)c1O	–	2 days	–	0.4 days	–	–	–	5.4 days	4.2 days	–	–	–	–	–	–	–	–	14	14	–
CCC(C)c1cc(Nc2cc[n+]([O-])c3cc(Cl)ccc23)cc(CN(CC)CC)c1O (stereo not given)	–	20.9 days	–	12.6 days	–	5	–	30 days	21.9 days	39.7 days	3	2	4.6 days	–	–	–	–	–	–	–
CC(C)(C)NCc1cc(Nc2ccnc3cc(Cl)ccc23)cc(-c2ccc(Cl)cc2)c1O [TEBUQUINE]	–	19.9 days	–	14.9 days	–	–	17.1 days	14.9 days	14.9 days	16.4 days	1	2	–	4	3	–	–	–	–	3
